In US10246456B2, “IRAK4 inhibiting agents” (BIOGEN MA INC., priority 2014, dated 2019):

What was measured:
IRAK4 = IRAK4 (Homo sapiens (Human), UniProt Q9NWZ3); experiment: IRAK-4 AlphaScreen biochemical kinase assay; details: 1 nM IRAK4, 1 mM ATP, 3.5 h at RT
Summary of the method: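 AlphaScreen read-out: streptavidin beads bind the biotinylated peptide and protein A beads bind the anti-phosphothreonine antibody, so energy transfer reports phosphorylation of the peptide. The kinase is human IRAK-4.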

IL-6 in A549 cells = experiment: Cell-based IL-6 ELISA assay in IL-1beta stimulated A549 cells; details: 2 ng/ml human IL-1beta overnight
Summary of the method: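 A549 cells (2.5×10^4/well, DMEM/10% FBS) pretreated 30 min at 37 C with compound, 10-point serial dilution from 10 uM, then stimulated overnight with 2 ng/ml human IL-1beta. Secreted IL-6 in supernatant quantified by human IL-6 ELISA.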

Chain of IRAK4 (Q9NWZ3 whole entry, species assumed): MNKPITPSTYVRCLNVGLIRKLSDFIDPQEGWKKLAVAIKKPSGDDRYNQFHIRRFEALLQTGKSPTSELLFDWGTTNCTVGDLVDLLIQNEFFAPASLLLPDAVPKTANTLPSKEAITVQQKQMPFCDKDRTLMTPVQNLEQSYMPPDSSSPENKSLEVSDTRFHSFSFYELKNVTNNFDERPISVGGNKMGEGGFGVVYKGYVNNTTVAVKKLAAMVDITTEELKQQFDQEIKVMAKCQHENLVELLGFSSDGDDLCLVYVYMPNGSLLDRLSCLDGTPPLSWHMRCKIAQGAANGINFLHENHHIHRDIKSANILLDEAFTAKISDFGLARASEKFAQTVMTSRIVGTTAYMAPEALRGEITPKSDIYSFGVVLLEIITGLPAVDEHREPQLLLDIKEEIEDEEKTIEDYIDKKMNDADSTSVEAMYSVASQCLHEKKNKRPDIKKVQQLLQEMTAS

| SMILES | IC50 (IRAK4) | EC50 (IL-6 in A549 cells) |
| --- | --- | --- |
| CCC[C@H](N)c1cccc(-c2cc(C(F)F)c3cnn(-c4cccc(CO)n4)c3c2)n1 [Example 491, (S)-(6-(6-(6-(1-aminobutyl)pyridin-2-yl)-4-(difluoromethyl)-1H-indazol-1-yl)pyridin-2-yl)methanol] | < 100 nM | ≤ 1000 nM |
| Cc1nc(-c2cc(-c3cccc([C@H](C)N)n3)cc3c2cnn3-c2cccc(CO)n2)cs1 [Example 368, (S)-(6-(6-(6-(1-aminoethyl)pyridin-2-yl)-4-(2-methylthiazol-4-yl)-1H-indazol-1-yl)pyridin-2-yl)methanol] | < 100 nM | ≤ 1000 nM |
| C[C@H](N)c1cccc(-c2cc(C(=O)NC(C)(C)CO)c3cnn(-c4cccc(CO)n4)c3c2)n1 [Example 540, (S)-6-(6-(1-aminoethyl)pyridin-2-yl)-N-(1-hydroxy-2-methylpropan-2-yl)-1-(6-(hydroxymethyl)pyridin-2-yl)-1H-indazole-4-carboxamide] | 100 to 1000 nM | 1000 to 10000 nM |
| CCC[C@H](N)c1cccc(-c2cc(OC(F)F)c3cnn(-c4cncc(CO)n4)c3c2)n1 [Example 526, (S)-(6-(6-(6-(1-aminobutyl)pyridin-2-yl)-4-(difluoromethoxy)-1H-indazol-1-yl)pyrazin-2-yl)methanol] | < 100 nM | ≤ 1000 nM |
| CCC[C@H](N)c1cccc(-c2cc(OC(F)(F)F)c3cnn(-c4cccc(CO)n4)c3c2)n1 [Example 523, (S)-(6-(6-(6-(1-aminobutyl)pyridin-2-yl)-4-(trifluoromethoxy)-1H-indazol-1-yl)pyridin-2-yl)methanol] | < 100 nM | ≤ 1000 nM |
| COc1cc(-c2cccc([C@@H](N)C3CC3)n2)cc2c1cnn2-c1cncc(CO)n1 [Example 496, (S)-(6-(6-(6-(amino(cyclopropyl)methyl)pyridin-2-yl)-4-methoxy-1H-indazol-1-yl)pyrazin-2-yl)methanol] | < 100 nM | ≤ 1000 nM |
| CCC[C@H](N)c1cccc(-c2cc(CN(C)C)c3cnn(-c4cccc(CO)n4)c3c2)n1 [Example 517, (S)-(6-(6-(6-(1-aminobutyl)pyridin-2-yl)-4-((dimethylamino)methyl)-1H-indazol-1-yl)pyridin-2-yl)methanol] | < 100 nM | ≤ 1000 nM |
| CCC[C@@H](N)c1ccnc(-c2ccc3cnn(-c4cccc(CO)n4)c3c2)n1 [Example 414, (R)-(6-(6-(4-(1-aminobutyl)pyrimidin-2-yl)-1H-indazol-1-yl)pyridin-2-yl)methanol] | < 100 nM | ≤ 1000 nM |
| COCC(N)c1cccc(-c2ccc3cnn(-c4cccc(CO)n4)c3c2)n1 (stereo not shown) [Example 543, (6-(6-(6-(1-amino-2-methoxyethyl)pyridin-2-yl)-1H-indazol-1-yl)pyridin-2-yl)methanol] | < 100 nM | 1000 to 10000 nM |
| CCC[C@H](N)c1ccnc(-c2ccc3cnn(-c4cccc(CO)n4)c3c2)n1 [Example 413, (S)-(6-(6-(4-(1-aminobutyl)pyrimidin-2-yl)-1H-indazol-1-yl)pyridin-2-yl)methanol] | < 100 nM | ≤ 1000 nM |
| CN(C)C(=O)C(N)c1cccc(-c2ccc3cnn(-c4cccc(CO)n4)c3c2)n1 (stereo not shown) [Example 544, 2-amino-2-(6-(1-(6-(hydroxymethyl)pyridin-2-yl)-1H-indazol-6-yl)pyridin-2-yl)-N,N-dimethylacetamide] | < 100 nM | 1000 to 10000 nM |
| CCC[C@H](N)c1cccc(-c2ccc3cnn(-c4cccc([C@@H](O)C(F)(F)F)n4)c3c2)n1 [Example 451, (R)-1-(6-(6-(6-((S)-1-aminobutyl)pyridin-2-yl)-1H-indazol-1-yl)pyridin-2-yl)-2,2,2-trifluoroethanol] | < 100 nM | ≤ 1000 nM |
| CCC[C@H](N)c1cccc(-c2cc(COC(F)F)c3cnn(-c4cccc(CO)n4)c3c2)n1 [Example 497, (S)-(6-(6-(6-(1-aminobutyl)pyridin-2-yl)-4-((difluoromethoxy)methyl)-1H-indazol-1-yl)pyridin-2-yl)methanol] | < 100 nM | ≤ 1000 nM |
| CC1(CC(N)c2cccc(-c3ccc4cnn(-c5cccc(CO)n5)c4c3)n2)COC1 (stereo not shown) [Example 448, (6-(6-(6-(1-amino-2-(3-methyloxetan-3-yl)ethyl)pyridin-2-yl)-1H-indazol-1-yl)pyridin-2-yl)methanol] | < 100 nM | 1000 to 10000 nM |
| CCCC(O)c1cccc(-c2ccc3cnn(-c4cccc(CO)n4)c3c2)n1 (stereo not shown) [Example 550, 1-(6-(1-(6-(hydroxymethyl)pyridin-2-yl)-1H-indazol-6-yl)pyridin-2-yl)butan-1-ol] | 1000 to 10000 nM | 1000 to 10000 nM |
| CCC[C@H](N)c1cccc(-c2cc(N3CCC(O)C3)c3cnn(-c4cccc(CO)n4)c3c2)n1 (stereo partly drawn) [Example 325, 1-(6-(6-((S)-1-aminobutyl)pyridin-2-yl)-1-(6-(hydroxymethyl)pyridin-2-yl)-1H-indazol-4-yl)pyrrolidin-3-ol] | < 100 nM | ≤ 1000 nM |

| SMILES | IC50 (IRAK4) | EC50 (IL-6 in A549 cells) |
| --- | --- | --- |
| CCOc1cc(-c2cccc([C@@H](N)[C@H](F)CC)n2)cc2c1cnn2-c1cccc(CO)n1 [Example 443, (6-(6-(6-((1R,2R)-1-amino-2-fluorobutyl)pyridin-2-yl)-4-ethoxy-1H-indazol-1-yl)pyridin-2-yl)methanol] | < 100 nM | ≤ 1000 nM |
| CCC[C@H](N)c1cccc(-c2cc(NC)c3cnn(-c4cccc(CO)n4)c3c2)n1 [Example 327, (S)-(6-(6-(6-(1-aminobutyl)pyridin-2-yl)-4-(methylamino)-1H-indazol-1-yl)pyridin-2-yl)methanol] | < 100 nM | ≤ 1000 nM |
| CC1COC(c2cc(-c3cccc([C@H](C)N)n3)cc3c2cnn3-c2cccc(CO)n2)=N1 (stereo partly drawn) [Example 528, (6-(6-(6-((S)-1-aminoethyl)pyridin-2-yl)-4-(4-methyl-4,5-dihydrooxazol-2-yl)-1H-indazol-1-yl)pyridin-2-yl)methanol] | < 100 nM | ≤ 1000 nM |
| C[C@H](N)c1cccc(-c2cc(-c3ncco3)c3cnn(-c4cccc(CO)n4)c3c2)n1 [Example 359, (S)-(6-(6-(6-(1-aminoethyl)pyridin-2-yl)-4-(oxazol-2-yl)-1H-indazol-1-yl)pyridin-2-yl)methanol] | < 100 nM | ≤ 1000 nM |
| C[C@H](N)c1cccc(-c2ccc3cnn(-c4ccc(F)c(CO)n4)c3c2)n1 [Example 545, (S)-(6-(6-(6-(1-aminoethyl)pyridin-2-yl)-1H-indazol-1-yl)-3-fluoropyridin-2-yl)methanol] | < 100 nM | 1000 to 10000 nM |
| CCC[C@H](N)c1cccc(-c2cc(CF)c3cnn(-c4cccc(CO)n4)c3c2)n1 [Example 487, (S)-(6-(6-(6-(l-aminobutyl)pyridin-2-yl)-4-(fluoromethyl)-1H-indazol-1-yl)pyridin-2-yl)methanol] | < 100 nM | ≤ 1000 nM |
| CCC[C@H](N)c1cccc(-c2ccc3cnn(-c4cccc(C(C)O)n4)c3c2)n1 (single isomer, unassigned) [Example 418] | < 100 nM | ≤ 1000 nM |
| CC[C@H](N)c1cccc(-c2ccc3cnn(-c4nccc(C(F)F)n4)c3c2)n1 [Example 512, (S)-1-(6-(1-(4-(difluoromethyl)pyrimidin-2-yl)-1H-indazol-6-yl)pyridin-2-yl)propan-1-amine] | < 100 nM | ≤ 1000 nM |
| CCC[C@H](N)c1cccc(-c2cc(COC)c3cnn(-c4cccc(CO)n4)c3c2)n1 [Example 495, (S)-(6-(6-(6-(1-aminobutyl)pyridin-2-yl)-4-(methoxymethyl)-1H-indazol-1-yl)pyridin-2-yl)methanol] | < 100 nM | ≤ 1000 nM |
| C[C@H](N)c1cccc(-c2ccc3cnn(-c4nccc(C(F)F)n4)c3c2)n1 [Example 541, (S)-1-(6-(1-(4-(difluoromethyl)pyrimidin-2-yl)-1H-indazol-6-yl)pyridin-2-yl)ethanamine] | 100 to 1000 nM | 1000 to 10000 nM |
| CCC[C@H](N)c1cccc(-c2cc(C#N)c3cnn(-c4cccc(CO)n4)c3c2)n1 [Example 511, (S)-6-(6-(1-aminobutyl)pyridin-2-yl)-1-(6-(hydroxymethyl)pyridin-2-yl)-1H-indazole-4-carbonitrile] | < 100 nM | ≤ 1000 nM |
| CCOc1cc(-c2cccc([C@@H](N)[C@H](CC)OC)n2)cc2c1cnn2-c1cccc(CO)n1 [Example 444, (6-(6-(6-((1R,2S)-1-amino-2-methoxybutyl)pyridin-2-yl)-4-ethoxy-1H-indazol-1-yl)pyridin-2-yl)methanol] | < 100 nM | 1000 to 10000 nM |
| CCOc1cc(-c2cccc([C@@H](N)[C@@H](CC)OC)n2)cc2c1cnn2-c1cccc(CO)n1 [Example 445, (6-(6-(6-((1R,2R)-1-amino-2-methoxybutyl)pyridin-2-yl)-4-ethoxy-1H-indazol-1-yl)pyridin-2-yl)methanol] | < 100 nM | ≤ 1000 nM |
| CCC[C@H](N)c1cccc(-c2cc(OCC3CCCNC3)c3cnn(-c4cccc(CO)n4)c3c2)n1 (stereo partly drawn) [Example 506, (6-(6-(6-((S)-1-aminobutyl)pyridin-2-yl)-4-(piperidin-3-ylmethoxy)-1H-indazol-1-yl)pyridin-2-yl)methanol] | < 100 nM | ≤ 1000 nM |
| Cc1cccc(-n2ncc3c(-c4cnco4)cc(-c4cccc(C(C)N)n4)cc32)n1 (stereo not shown) [Example 536, 1-(6-(1-(6-methylpyridin-2-yl)-4-(oxazol-5-yl)-1H-indazol-6-yl)pyridin-2-yl)ethanamine] | < 100 nM | ≤ 1000 nM |
| CCC[C@H](N)c1cccc(-c2cc(OCCC3CC3)c3cnn(-c4cccc(CO)n4)c3c2)n1 [Example 522, (S)-(6-(6-(6-(1-aminobutyl)pyridin-2-yl)-4-(2-cyclopropylethoxy)-1H-indazol-1-yl)pyridin-2-yl)methanol] | < 100 nM | ≤ 1000 nM |
